Reference: paper PMC5218480 (PLoS ONE, 2017)

Tested on: MV-4-11 cells
Test: Gene expression microarray analysis (Affymetrix PrimeView) and GSEA
Assay type: cell-based, human
Set-up: RFU PODN (11730768_x_at) / Fold change /veh PODN (11730768_x_at) / RFU LINC00158 (11744669_a_at) / Fold change /veh LINC00158 (11744669_a_at) / RFU DUSP10 (11751237_a_at) / Fold change /veh DUSP10 (11751237_a_at) / RFU ID3 (11757404_x_at) / Fold change /veh ID3 (11757404_x_at) / RFU PLEKHG5 (11737974_s_at) / Fold change /veh PLEKHG5 (11737974_s_at) / RFU LRRC4B (11730491_at) / Fold change /veh LRRC4B (11730491_at) / RFU GIMAP4 (11747438_a_at) / Fold change /veh GIMAP4 (11747438_a_at) / RFU KRT8 (11758183_x_at) / Fold change /veh KRT8 (11758183_x_at) / RFU CNN1 (11734310_a_at) / Fold change /veh CNN1 (11734310_a_at) / RFU VPS37D (11726825_at) / Fold change /veh VPS37D (11726825_at) / RFU C10orf10 (11716522_x_at) / Fold change /veh C10orf10 (11716522_x_at) / RFU KIR2DL2 /// KIR2DL4 /// KIR2DL5A /// KIR2DL5B /// KIR2DS1 /// KIR2DS2 /// KIR2DS3 /// KIR2DS4 /// KIR3DL3 /// KIR3DL3 /// KIR3DS1 (11738374_at) / Fold change /veh KIR2DL2 /// KIR2DL4 /// KIR2DL5A /// KIR2DL5B /// KIR2DS1 /// KIR2DS2 /// KIR2DS3 /// KIR2DS4 /// KIR3DL3 /// KIR3DL3 /// KIR3DS1 (11738374_at) / RFU C1QL1 (11718748_at) / Fold change /veh C1QL1 (11718748_at) / RFU TMPRSS4 (11747572_a_at) / Fold change /veh TMPRSS4 (11747572_a_at) / RFU HAMP (11756126_x_at) / Fold change /veh HAMP (11756126_x_at) / RFU RNFT2 (11725882_a_at) / Fold change /veh RNFT2 (11725882_a_at) / RFU NR4A2 (11747474_a_at) / Fold change /veh NR4A2 (11747474_a_at) / RFU ABCC12 (11746883_a_at) / Fold change /veh ABCC12 (11746883_a_at) / RFU TMEM136 (11760407_x_at) / Fold change /veh TMEM136 (11760407_x_at) / RFU CLDN22 /// WWC2 (11732394_at) / Fold change /veh CLDN22 /// WWC2 (11732394_at) / RFU HLA-DPB1 (11760878_x_at) / Fold change /veh HLA-DPB1 (11760878_x_at) / RFU SPINT1 (11716480_a_at) / Fold change /veh SPINT1 (11716480_a_at) / RFU GAP43 (11754022_s_at) / Fold change /veh GAP43 (11754022_s_at) / RFU A4GNT (11735810_at) / Fold change /veh A4GNT (11735810_at) / RFU PRB3 (11715151_x_at) / Fold change /veh PRB3 (11715151_x_at) / RFU TUBB4B (11761932_at) / Fold change /veh TUBB4B (11761932_at) / RFU CAPN14 (11732068_a_at) / Fold change /veh CAPN14 (11732068_a_at) / RFU TMCC2 (11721928_a_at) / Fold change /veh TMCC2 (11721928_a_at) / RFU IRGQ (11745062_a_at) / Fold change /veh IRGQ (11745062_a_at) / RFU FAM174B (11720279_a_at) / Fold change /veh FAM174B (11720279_a_at) / RFU TMPRSS4 (11748680_a_at) / Fold change /veh TMPRSS4 (11748680_a_at) / RFU FAM212B (11763350_a_at) / Fold change /veh FAM212B (11763350_a_at) / RFU PLEKHG5 (11743358_a_at) / Fold change /veh PLEKHG5 (11743358_a_at) / RFU ZSCAN30 (11745921_a_at) / Fold change /veh ZSCAN30 (11745921_a_at) / RFU CMKLR1 (11741424_a_at) / Fold change /veh CMKLR1 (11741424_a_at) / RFU LOC101060620 /// MAPK8IP1 (11723275_at) / Fold change /veh LOC101060620 /// MAPK8IP1 (11723275_at) / RFU SPTSSB (11747773_x_at) / Fold change /veh SPTSSB (11747773_x_at) / RFU PRSS12 (11739890_at) / Fold change /veh PRSS12 (11739890_at) / RFU BIN1 (11741810_x_at) / Fold change /veh BIN1 (11741810_x_at) / RFU WNT11 (11732464_a_at) / Fold change /veh WNT11 (11732464_a_at) / RFU C10orf10 (11716521_a_at) / Fold change /veh C10orf10 (11716521_a_at) / RFU C5orf56 (11738089_at) / Fold change /veh C5orf56 (11738089_at) / RFU CYB561 (11721691_x_at) / Fold change /veh CYB561 (11721691_x_at) / RFU ANKRD19P (11752326_a_at) / Fold change /veh ANKRD19P (11752326_a_at) / RFU OR2T12 /// OR2T33 /// OR2T8 (11738714_s_at) / Fold change /veh OR2T12 /// OR2T33 /// OR2T8 (11738714_s_at) / RFU VCAN (11748164_a_at) / Fold change /veh VCAN (11748164_a_at) / RFU JSRP1 (11732532_at) / Fold change /veh JSRP1 (11732532_at) / RFU KRTAP10-11 (11738290_x_at) / Fold change /veh KRTAP10-11 (11738290_x_at) / RFU MYO3A (11730013_a_at) / Fold change /veh MYO3A (11730013_a_at) / RFU EBF3 (11725865_a_at) / Fold change /veh EBF3 (11725865_a_at) / RFU CAMK2N1 (11719241_x_at) / Fold change /veh CAMK2N1 (11719241_x_at) / RFU C5orf56 (11738088_a_at) / Fold change /veh C5orf56 (11738088_a_at) / RFU OLFML3 (11715873_a_at) / Fold change /veh OLFML3 (11715873_a_at) / RFU LOC100653217 /// NTM (11731650_a_at) / Fold change /veh LOC100653217 /// NTM (11731650_a_at) / RFU MAPK11 (11762145_a_at) / Fold change /veh MAPK11 (11762145_a_at) / RFU FIZ1 (11724087_x_at) / Fold change /veh FIZ1 (11724087_x_at) / RFU OASL (11726364_x_at) / Fold change /veh OASL (11726364_x_at) / RFU SOX15 (11748057_x_at) / Fold change /veh SOX15 (11748057_x_at) / RFU CD79A (11719716_a_at) / Fold change /veh CD79A (11719716_a_at) / RFU HIST1H1D (11736915_at) / Fold change /veh HIST1H1D (11736915_at) / RFU CASKIN2 (11723855_a_at) / Fold change /veh CASKIN2 (11723855_a_at) / RFU LOC730098 (11760151_x_at) / Fold change /veh LOC730098 (11760151_x_at) / RFU OR4N2 (11742367_at) / Fold change /veh OR4N2 (11742367_at) / RFU PRRT2 (11749266_a_at) / Fold change /veh PRRT2 (11749266_a_at) / RFU SNX32 (11753110_a_at) / Fold change /veh SNX32 (11753110_a_at) / RFU CDHR5 (11726645_a_at) / Fold change /veh CDHR5 (11726645_a_at) / RFU RCAN1 (11760418_a_at) / Fold change /veh RCAN1 (11760418_a_at) / RFU FAM167A (11723789_a_at) / Fold change /veh FAM167A (11723789_a_at) / RFU FAM26E (11764081_at) / Fold change /veh FAM26E (11764081_at) / RFU ISYNA1 (11749810_s_at) / Fold change /veh ISYNA1 (11749810_s_at) / RFU ACY1 (11761880_at) / Fold change /veh ACY1 (11761880_at) / RFU 11764098_at / Fold change /veh 11764098_at / RFU SAMD14 (11745864_x_at) / Fold change /veh SAMD14 (11745864_x_at) / RFU NPB (11741838_a_at) / Fold change /veh NPB (11741838_a_at) / RFU TMPRSS6 (11731388_a_at) / Fold change /veh TMPRSS6 (11731388_a_at) / RFU KRTAP10-2 (11738614_at) / Fold change /veh KRTAP10-2 (11738614_at) / RFU ARHGAP8 /// PRR5-ARHGAP8 (11727945_x_at) / Fold change /veh ARHGAP8 /// PRR5-ARHGAP8 (11727945_x_at) / RFU KRTAP5-7 /// NADSYN1 (11734609_at) / Fold change /veh KRTAP5-7 /// NADSYN1 (11734609_at) / RFU RASL12 (11751679_a_at) / Fold change /veh RASL12 (11751679_a_at) / RFU CDKN2B (11736163_a_at) / Fold change /veh CDKN2B (11736163_a_at) / RFU PRF1 (11729649_at) / Fold change /veh PRF1 (11729649_at) / RFU, ZNF638 /// ZNF638-IT1 / Fold change vs veh, ZNF638 /// ZNF638-IT1 / RFU, PANK3 / Fold change vs veh, PANK3 / RFU, SH3YL1 / Fold change vs veh, SH3YL1 / RFU, ZEB2 / Fold change vs veh, ZEB2 / RFU, NRIP1 / Fold change vs veh, NRIP1 / RFU, PTTG1IP / Fold change vs veh, PTTG1IP / RFU, CAPN2 / Fold change vs veh, CAPN2 / RFU, MED14 / Fold change vs veh, MED14 / RFU, SNORA58 / Fold change vs veh, SNORA58 / RFU, C1orf63 / Fold change vs veh, C1orf63 / RFU, LRRFIP1 / Fold change vs veh, LRRFIP1 / RFU, NDUFAF7 / Fold change vs veh, NDUFAF7 / RFU, SLC12A2 / Fold change vs veh, SLC12A2 / RFU, IBTK / Fold change vs veh, IBTK / RFU, ESF1 / Fold change vs veh, ESF1 / Fold change vs veh, TMEM50B / RFU, TAOK1 / Fold change vs veh, TAOK1 / RFU, ACBD3 / Fold change vs veh, ACBD3 / RFU, TMA16 / Fold change vs veh, TMA16 / RFU, RWDD3 / Fold change vs veh, RWDD3 / RFU, BCAT1 / Fold change vs veh, BCAT1 / RFU, EDEM3 / Fold change vs veh, EDEM3 / RFU, TMEM33 / Fold change vs veh, TMEM33 / RFU, WDR75 / Fold change vs veh, WDR75 / RFU, AHCTF1 / Fold change vs veh, AHCTF1 / RFU, TFRC / Fold change vs veh, TFRC / RFU, ZDHHC17 / Fold change vs veh, ZDHHC17 / RFU, NOM1 / Fold change vs veh, NOM1 / RFU, ARL8B / Fold change vs veh, ARL8B / RFU, ZBTB11 / Fold change vs veh, ZBTB11 / RFU, TAMM41 / Fold change vs veh, TAMM41 / RFU, KIAA1704 /// LOC100996395 / Fold change vs veh, KIAA1704 /// LOC100996395 / RFU, ING1 / Fold change vs veh, ING1 / RFU, TRMT61B / Fold change vs veh, TRMT61B / RFU, FUBP3 / Fold change vs veh, FUBP3 / RFU, TP53 / Fold change vs veh, TP53 / RFU, TNKS2 / Fold change vs veh, TNKS2 / RFU, ZFP14 / Fold change vs veh, ZFP14 / RFU, ACTR2 / Fold change vs veh, ACTR2 / RFU, PPP3R1 / Fold change vs veh, PPP3R1 / RFU, PIK3R1 / Fold change vs veh, PIK3R1 / RFU, HNRNPA1 / Fold change vs veh, HNRNPA1 / RFU, RNF170 / Fold change vs veh, RNF170 / RFU, ZNF28 / Fold change vs veh, ZNF28 / RFU, RNGTT / Fold change vs veh, RNGTT / RFU, OGT / Fold change vs veh, OGT / RFU, BRD1 / Fold change vs veh, BRD1 / RFU, MARS / Fold change vs veh, MARS / RFU, ZNF655 / Fold change vs veh, ZNF655 / RFU, FAHD1 / Fold change vs veh, FAHD1 / RFU, BDP1 / Fold change vs veh, BDP1 / RFU, LRRCC1 / Fold change vs veh, LRRCC1 / RFU, ARID1A / Fold change vs veh, ARID1A / RFU, ZNF146 / Fold change vs veh, ZNF146 / RFU, ZNF330 / Fold change vs veh, ZNF330 / RFU, GPN3 / Fold change vs veh, GPN3 / RFU, C9orf123 / Fold change vs veh, C9orf123 / RFU, N4BP2L2 / Fold change vs veh, N4BP2L2 / RFU, ARFIP1 / Fold change vs veh, ARFIP1 / RFU, FAM179B / Fold change vs veh, FAM179B / RFU, BCL10 / Fold change vs veh, BCL10 / RFU, UHRF1BP1L / Fold change vs veh, UHRF1BP1L / RFU, BET1 / Fold change vs veh, BET1 / RFU, CNOT2 / Fold change vs veh, CNOT2 / RFU, ZNF268 / Fold change vs veh, ZNF268 / Fold change vs veh, ZNF507 / RFU, DGCR2 / Fold change vs veh, DGCR2 / RFU, WDSUB1 / Fold change vs veh, WDSUB1 / Fold change vs veh, HSP90B1 /// MIR3652 / RFU, ADSS / Fold change vs veh, ADSS / RFU, GK / Fold change vs veh, GK / RFU, ZNF148 / Fold change vs veh, ZNF148 / RFU, TAF9 / Fold change vs veh, TAF9 / RFU, SLC1A5 / Fold change vs veh, SLC1A5 / RFU, SLMO2 / Fold change vs veh, SLMO2 / RFU, ABCC4 / Fold change vs veh, ABCC4 / RFU, LOC101060439 /// RAP1B / Fold change vs veh, LOC101060439 /// RAP1B / RFU, RFX7 / Fold change vs veh, RFX7 / RFU, GTPBP10 / Fold change vs veh, GTPBP10 / RFU, CNEP1R1 / Fold change vs veh, CNEP1R1 / RFU, BIVM-ERCC5 /// ERCC5 / Fold change vs veh, BIVM-ERCC5 /// ERCC5 / RFU, ILF3 / Fold change vs veh, ILF3 / RFU 11762660_at / Fold change /veh 11762660_at / RFU VCAN (11757783_s_at) / Fold change /veh VCAN (11757783_s_at) / RFU DDX43 (11728927_at) / Fold change /veh DDX43 (11728927_at) / RFU KRT8 (11758188_x_at) / Fold change /veh KRT8 (11758188_x_at) / RFU NKD1 (11759106_at) / Fold change /veh NKD1 (11759106_at) / RFU SRD5A1 (11742802_a_at) / Fold change /veh SRD5A1 (11742802_a_at) / RFU TPSAB1 /// TPSB2 (11721975_s_at) / Fold change /veh TPSAB1 /// TPSB2 (11721975_s_at) / RFU GSTM3 (11746129_a_at) / Fold change /veh GSTM3 (11746129_a_at) / RFU IL23R (11737362_x_at) / Fold change /veh IL23R (11737362_x_at) / RFU TMEM51 (11727254_a_at) / Fold change /veh TMEM51 (11727254_a_at) / RFU PIWIL2 (11732686_x_at) / Fold change /veh PIWIL2 (11732686_x_at) / RFU ORM1 (11744905_x_at) / Fold change /veh ORM1 (11744905_x_at) / RFU CCDC152 (11743942_at) / Fold change /veh CCDC152 (11743942_at) / RFU ECM1 (11717891_a_at) / Fold change /veh ECM1 (11717891_a_at) / RFU IL23R (11748794_a_at) / Fold change /veh IL23R (11748794_a_at) / RFU TNFAIP8L3 (11732012_x_at) / Fold change /veh TNFAIP8L3 (11732012_x_at) / RFU MBOAT4 (11741988_at) / Fold change /veh MBOAT4 (11741988_at) / RFU 11764193_at / Fold change /veh 11764193_at / RFU TMEM53 (11763286_at) / Fold change /veh TMEM53 (11763286_at) / RFU MAGEB2 (11727129_at) / Fold change /veh MAGEB2 (11727129_at) / RFU TMEM200A (11744735_a_at) / Fold change /veh TMEM200A (11744735_a_at) / RFU CCDC152 (11751479_a_at) / Fold change /veh CCDC152 (11751479_a_at) / RFU FAM211A (11726209_a_at) / Fold change /veh FAM211A (11726209_a_at) / RFU RGS16 (11746705_a_at) / Fold change /veh RGS16 (11746705_a_at) / RFU VCAN (11755009_s_at) / Fold change /veh VCAN (11755009_s_at) / RFU RHOB (11743442_s_at) / Fold change /veh RHOB (11743442_s_at) / RFU RGS16 (11720943_a_at) / Fold change /veh RGS16 (11720943_a_at) / RFU RGS16 (11720944_at) / Fold change /veh RGS16 (11720944_at) / RFU, VPS4B / Fold change vs veh, VPS4B / RFU, CREB1 / Fold change vs veh, CREB1 / RFU, DNAJC13 / Fold change vs veh, DNAJC13 / RFU, GNAQ / Fold change vs veh, GNAQ / RFU, CDK5R1 / Fold change vs veh, CDK5R1 / RFU, ZRANB3 / Fold change vs veh, ZRANB3 / RFU, CUL4A / Fold change vs veh, CUL4A / RFU, CCNY / Fold change vs veh, CCNY / RFU, UFL1 / Fold change vs veh, UFL1 / RFU, COG3 / Fold change vs veh, COG3 / RFU, DIAPH2 / Fold change vs veh, DIAPH2 / RFU, SKA2 / Fold change vs veh, SKA2 / RFU, AFF3 / Fold change vs veh, AFF3 / RFU, LMF1 / Fold change vs veh, LMF1 / RFU, IPO11 / Fold change vs veh, IPO11 / RFU, DFFB / Fold change vs veh, DFFB / RFU, FOXP1 / Fold change vs veh, FOXP1 / RFU, CARD8 / Fold change vs veh, CARD8 / RFU, STRN3 / Fold change vs veh, STRN3 / RFU, ADK / Fold change vs veh, ADK / RFU, RASSF2 / Fold change vs veh, RASSF2 / RFU, WIPF1 / Fold change vs veh, WIPF1 / RFU, LARP1B / Fold change vs veh, LARP1B / RFU, RASA1 / Fold change vs veh, RASA1 / RFU, RB1 / Fold change vs veh, RB1 / RFU, PPFIA1 / Fold change vs veh, PPFIA1 / RFU, MAT2A / Fold change vs veh, MAT2A / RFU, CCT5 / Fold change vs veh, CCT5 / RFU, WDR92 / Fold change vs veh, WDR92 / RFU, CUX1 / Fold change vs veh, CUX1 / RFU, TTC7A / Fold change vs veh, TTC7A / RFU, TMEM135 / Fold change vs veh, TMEM135 / RFU, DEPTOR / Fold change vs veh, DEPTOR / RFU, CPM / Fold change vs veh, CPM / RFU, DNAJB6 / Fold change vs veh, DNAJB6 / RFU, CACNA2D3 / Fold change vs veh, CACNA2D3 / RFU, DTX4 / Fold change vs veh, DTX4 / RFU, TFCP2 / Fold change vs veh, TFCP2 / RFU, GMCL1 /// GMCL1P1 / Fold change vs veh, GMCL1 /// GMCL1P1 / RFU, AEBP2 / Fold change vs veh, AEBP2 / RFU, SNHG1 /// SNORD22 /// SNORD25 /// SNORD26 /// SNORD27 /// SNORD28 /// SNORD29 /// SNORD31 / Fold change vs veh, SNHG1 /// SNORD22 /// SNORD25 /// SNORD26 /// SNORD27 /// SNORD28 /// SNORD29 /// SNORD31 / Fold change (Aza/veh), C12orf56 (ProbeSet 11735607_a_at) / Fold change (ACY-1035/veh), C12orf56 (ProbeSet 11735607_a_at) / Fold change (Aza/veh), FGFR1OP (ProbeSet 11751329_s_at) / Fold change (ACY-1035/veh), FGFR1OP (ProbeSet 11751329_s_at) / Fold change (Aza/veh), VPS36 (ProbeSet 11739960_a_at) / Fold change (ACY-1035/veh), VPS36 (ProbeSet 11739960_a_at) / RFU SYPL1 (11715823_x_at) / Fold change /veh SYPL1 (11715823_x_at) / RFU IGFBP7 (11715501_s_at) / Fold change /veh IGFBP7 (11715501_s_at) / RFU REEP3 (11722064_at) / Fold change /veh REEP3 (11722064_at) / RFU IGLL1 (11728026_x_at) / Fold change /veh IGLL1 (11728026_x_at): dose or concentration left out as unconfirmed
Conditions: ProbeSet 11759094_a_at; LIST D

## Nc1ccc(-c2cccs2)cc1NC(=O)c1ccc2c(c1)cc(C1CC1)n2CCN1CCOCC1 [ACY-1035]
  Fold change vs veh, GNAQ: 0.89
